Experimental data from ChEMBL document CHEMBL5512601, “Small-molecule inhibitors targeting apoptosis signal-regulated kinase 1” (Eur J Med Chem, 2023).

Legend:
[1] = biological target: T1, Mitogen-activated protein kinase kinase kinase 5 (Homo sapiens, UniProt Q99683); assay: Inhibition of full length GST-tagged recombinant human ASK1 using MBP as substrate incubated for 20 mins
T1 sequence (Q99683 whole entry): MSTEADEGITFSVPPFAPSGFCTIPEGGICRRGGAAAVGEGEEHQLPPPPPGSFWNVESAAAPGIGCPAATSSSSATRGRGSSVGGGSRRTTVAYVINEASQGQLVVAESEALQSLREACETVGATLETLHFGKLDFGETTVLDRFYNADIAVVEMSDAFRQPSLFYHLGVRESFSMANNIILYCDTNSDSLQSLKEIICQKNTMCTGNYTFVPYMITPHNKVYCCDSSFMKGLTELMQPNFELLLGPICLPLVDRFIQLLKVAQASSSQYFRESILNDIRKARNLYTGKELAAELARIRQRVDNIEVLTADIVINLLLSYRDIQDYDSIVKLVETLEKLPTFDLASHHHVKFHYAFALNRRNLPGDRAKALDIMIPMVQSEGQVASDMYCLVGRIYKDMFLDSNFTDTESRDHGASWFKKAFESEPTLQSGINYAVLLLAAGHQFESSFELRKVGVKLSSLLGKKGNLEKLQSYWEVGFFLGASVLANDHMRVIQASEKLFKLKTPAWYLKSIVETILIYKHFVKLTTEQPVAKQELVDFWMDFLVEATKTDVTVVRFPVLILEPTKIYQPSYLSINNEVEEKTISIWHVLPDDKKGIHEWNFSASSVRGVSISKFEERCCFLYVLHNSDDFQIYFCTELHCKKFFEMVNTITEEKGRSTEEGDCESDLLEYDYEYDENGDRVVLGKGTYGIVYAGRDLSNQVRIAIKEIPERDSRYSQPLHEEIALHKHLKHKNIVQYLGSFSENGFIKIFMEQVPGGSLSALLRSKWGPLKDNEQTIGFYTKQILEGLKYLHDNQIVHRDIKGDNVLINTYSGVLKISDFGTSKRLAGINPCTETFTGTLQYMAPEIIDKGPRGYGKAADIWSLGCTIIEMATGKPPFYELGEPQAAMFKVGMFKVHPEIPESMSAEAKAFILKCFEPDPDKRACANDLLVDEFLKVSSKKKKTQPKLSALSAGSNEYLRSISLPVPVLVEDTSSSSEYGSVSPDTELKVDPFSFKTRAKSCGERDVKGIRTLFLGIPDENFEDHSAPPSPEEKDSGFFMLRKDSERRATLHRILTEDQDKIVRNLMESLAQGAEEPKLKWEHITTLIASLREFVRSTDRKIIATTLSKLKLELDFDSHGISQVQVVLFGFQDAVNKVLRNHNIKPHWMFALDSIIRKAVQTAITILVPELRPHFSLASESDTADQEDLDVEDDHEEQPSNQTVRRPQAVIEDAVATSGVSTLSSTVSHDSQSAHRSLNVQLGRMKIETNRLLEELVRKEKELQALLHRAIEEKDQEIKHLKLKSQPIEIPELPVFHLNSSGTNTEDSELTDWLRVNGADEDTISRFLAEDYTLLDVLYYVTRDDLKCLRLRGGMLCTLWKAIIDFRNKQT

[2] = biological target: T1, Mitogen-activated protein kinase kinase kinase 5; assay: Inhibition of full length GST-tagged recombinant human ASK1 using MBP as substrate incubated for 20 mins by cell based assay
[3] = Half life in Sprague-Dawley rat at 1 mg/kg, iv by LC-MS/MS analysis; assay type: ADME, organism-based; conditions: in vivo
[4] = biological target: T1, Mitogen-activated protein kinase kinase kinase 5; assay: Inhibition of ASK1 in HEK293 cells; assay type: cell-based
[5] = Apparent permeability of compound across apical to basolateral side in human Caco2 cells; assay type: ADME, cell-based; conditions: Caco-2
[6] = Efflux ratio of apparent permeability across basolateral to apical side over apical to basolateral side in human Caco2 cells by LC-MS/MS analysis; assay type: ADME, cell-based; conditions: Caco-2
[7] = Oral bioavailability in Sprague-Dawley rat at 1 mg/kg by LC-MS/MS analysis; assay type: ADME, organism-based; conditions: in vivo
[8] = Unbound brain-to-plasma concentration ratio in rat at 1 mg/kg, iv by LC-MS/MS analysis; assay type: ADME, organism-based; conditions: brain and plasma, read-out: K(p,uu,brain)
[9] = biological target: T1, Mitogen-activated protein kinase kinase kinase 5; assay: Inhibition of ASK1 (unknown origin) incubated for 2 hrs
[10] = biological target: T1, Mitogen-activated protein kinase kinase kinase 5; assay: Inhibition of ASK1 phosphorylation in HEK293T cells incubated for 1 hr; assay type: cell-based
Rattus norvegicus [11] = organism: Rattus norvegicus; assay: Antifibrotic activity CDHFD-NaNO2 rat model assessed as effect on hydroxyproline level; assay type: functional
Rattus norvegicus [12] = organism: Rattus norvegicus; assay: Antifibrotic activity CDHFD-NaNO2 rat model; assay type: functional

Cc1cc(F)c(C(=O)Nc2cccc(-c3nnc4n3CCCC4)n2)cc1-n1nnc(C2CC2)n1
IC50 [1]: > 1 µM
IC50 [2]: > 0.1 µM

Cc1ccc(C(=O)Nc2cccc(-c3nncn3C(C)C)n2)cc1-n1cnc(C2CC2)c1
half-life [3]: 1.2 h
EC50 [4]: 0.018 µM
Papp A→B [5]: 2.6 nm/s
efflux ratio [6]: 15.4
bioavailability [7]: 50%

C[C@H]1CCCOc2ncccc2C(=O)Nc2cccc(n2)-c2nncn21
Kp uu [8]: ≥ 0.1
IC50 [9]: < 0.1 µM
IC50 [10]: ≤ 1 µM

Cc1cc(F)c(C(=O)Nc2cccc(-c3nncn3C(C)C)n2)cc1-n1cnc(C2CC2)c1 [SELONSERTIB]
Activity (Rattus norvegicus [11]): 6%
Activity (Rattus norvegicus [12]): 28%
bioavailability [7]: 75%
